Test results taken from ChEMBL document CHEMBL5620397, “Design, synthesis and biological evaluation of 3-substituted-2-thioxothiazolidin-4-one (rhodanine) derivatives as antitubercular agents against Mycobacterium tuberculosis protein tyrosine phosphatase B” (Eur J Med Chem, 2023).
Values after ≈ are worked out from the molar mass of the structure shown.

Legend:
Vero = test: cells; conditions: Chlorocebus sabaeus, 48 h
Description: Cytotoxicity against african green monkey Vero cells after 48 hrs by MTT assay

[1] = Cytotoxicity against mouse J774.G8 cells after 48 hrs by MTT assay; type: functional, cell-based; conditions: J774.G8, 48 h
[2] = test system: Mycobacterium tuberculosis; test: Antituberculosis activity against Mycobacterium tuberculosis H37Rv by microplate alamar blue assay; type: functional
[3] = test system: Mycobacterium tuberculosis; test: Antituberculosis activity against Mycobacterium tuberculosis H37Rv in mouse J774A.1 cells assessed as reduction in intracellular bacterial burden at 0.5 ug/ml measured after 21 days by agar plate method; type: functional, J774.A1; design: scale not given: the % may be the effect or the level left; conditions: dose 0.5 µg/ml; time 21 day
[4] = Metabolic stability in human liver microsomes assessed as substrate remaining preincubated for 5 mins followed by NADPH addition and measured upto 30 mins by LC-MS/MS assay; type: ADME, Microsome; conditions: time < 35 min, read-out: Stability
[5] = test system: Mycobacterium tuberculosis; test: Antituberculosis activity against Mycobacterium tuberculosis H37Rv in mouse J774A.1 cells assessed as reduction in intracellular bacterial burden at 10 ug/ml measured after 21 days by agar plate method; type: functional, J774.A1; design: scale not given: the % may be the effect or the level left; conditions: dose 10 µg/ml; time 21 day
[6] = Metabolic stability in mouse liver microsomes assessed as intrinsic clearance per mg protein preincubated for 5 mins followed by NADPH addition and measured upto 30 mins by LC-MS/MS assay; type: ADME, Microsome; conditions: time < 35 min, read-out: CLH
[7] = target: T1, Triple specificity protein phosphatase PtpB (Mycobacterium tuberculosis (strain ATCC 25618 / H37Rv), UniProt I6WXK4); test: Inhibition of Mycobacterium tuberculosis H37Rv ptpB expressed in Escherichia coli BL21(DE3) using pNPP as substrate preincubated for 10 mins followed by substrate addition and measured for 5 mins by spectrophotometer analysis
T1 sequence (I6WXK4 whole entry): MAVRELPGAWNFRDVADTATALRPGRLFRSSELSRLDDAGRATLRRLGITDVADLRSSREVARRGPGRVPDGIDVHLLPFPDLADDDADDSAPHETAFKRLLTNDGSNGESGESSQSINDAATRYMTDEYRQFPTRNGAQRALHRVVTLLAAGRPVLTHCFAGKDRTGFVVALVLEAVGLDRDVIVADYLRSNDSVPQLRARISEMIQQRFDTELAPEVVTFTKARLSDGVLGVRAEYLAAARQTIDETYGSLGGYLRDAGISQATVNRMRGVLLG

[8] = Permeability in human Caco-2 cells at 3 uM incubated for 90 mins by LC-MS/MS analysis; type: ADME, cell-based; conditions: read-out: permeability
[9] = target: T2, Low molecular weight protein-tyrosine phosphatase A (Mycobacterium tuberculosis, UniProt P9WIA1); test: Inhibition of Mycobacterium tuberculosis H37Rv ptpA expressed in Escherichia coli BL21(DE3) using pNPP as substrate preincubated for 10 mins followed by substrate addition and measured for 5 mins by spectrophotometer analysis
T2 sequence (P9WIA1 whole entry): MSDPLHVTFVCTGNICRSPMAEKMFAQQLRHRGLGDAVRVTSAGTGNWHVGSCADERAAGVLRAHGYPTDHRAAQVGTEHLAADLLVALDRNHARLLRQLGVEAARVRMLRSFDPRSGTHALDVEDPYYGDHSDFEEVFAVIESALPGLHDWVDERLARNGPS

[10] = test system: Mycobacterium tuberculosis; test: Antituberculosis activity against Mycobacterium tuberculosis H37Rv in mouse J774A.1 cells assessed as reduction in intracellular bacterial burden measured after 21 days by agar plate method; type: functional, organism-based; conditions: J774.A1, dose 1-10 µg/ml, time 21.0 day
[11] = Metabolic stability in mouse liver microsomes assessed as half life preincubated for 5 mins followed by NADPH addition and measured upto 30 mins by LC-MS/MS assay; type: ADME, Microsome; conditions: time < 35 min
[12] = Metabolic stability in human liver microsomes assessed as intrinsic clearance per mg protein preincubated for 5 mins followed by NADPH addition and measured upto 30 mins by LC-MS/MS assay; type: ADME, Microsome; conditions: time < 35 min, read-out: CLH
[13] = target: T3, Triple specificity protein phosphatase PtpB (Mycobacterium tuberculosis (strain ATCC 25618 / H37Rv)) (UniProt I6WXK4); test: Inhibition of Mycobacterium tuberculosis H37Rv ptpB expressed in Escherichia coli BL21(DE3) at 50 uM using pNPP as substrate preincubated for 10 mins followed by substrate addition and measured for 5 mins by spectrophotometer analysis relative to control; conditions: time 15.0 min
T3 sequence (whole entry): T1 sequence (I6WXK4 whole entry)

[14] = Metabolic stability in human liver microsomes assessed as half life preincubated for 5 mins followed by NADPH addition and measured upto 30 mins by LC-MS/MS assay; type: ADME, Microsome; conditions: time < 35 min
[15] = target: T4, Tyrosine-protein phosphatase non-receptor type 1 (Homo sapiens, UniProt P18031); test: Inhibition of recombinant human PTP1B using pNPP as substrate preincubated for 5 mins followed by substrate addition and measured for 10 mins; type: toxicity
T4 sequence (P18031 whole entry): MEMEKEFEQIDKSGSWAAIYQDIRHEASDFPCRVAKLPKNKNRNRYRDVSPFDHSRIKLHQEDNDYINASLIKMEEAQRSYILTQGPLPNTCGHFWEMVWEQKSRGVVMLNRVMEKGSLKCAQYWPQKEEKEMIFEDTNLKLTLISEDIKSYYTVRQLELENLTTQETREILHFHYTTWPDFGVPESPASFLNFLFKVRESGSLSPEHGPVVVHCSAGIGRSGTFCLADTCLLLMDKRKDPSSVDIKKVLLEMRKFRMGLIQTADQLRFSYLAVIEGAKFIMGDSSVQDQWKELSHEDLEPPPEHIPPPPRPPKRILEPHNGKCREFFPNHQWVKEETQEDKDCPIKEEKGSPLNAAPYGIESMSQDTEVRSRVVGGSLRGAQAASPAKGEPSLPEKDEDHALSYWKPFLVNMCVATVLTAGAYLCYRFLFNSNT

[16] = Metabolic stability in mouse liver microsomes assessed as substrate remaining preincubated for 5 mins followed by NADPH addition and measured upto 30 mins by LC-MS/MS assay; type: ADME, Microsome; conditions: time < 35 min, read-out: Stability
[17] = test system: Mycobacterium tuberculosis; test: Antituberculosis activity against Mycobacterium tuberculosis H37Rv in mouse J774A.1 cells assessed as reduction in bacterial burden at 10 ug/ml measured after 21 days in presence of RFP by agar plate method; type: functional, J774.A1; design: scale not given: the % may be the effect or the level left; conditions: dose 10 µg/ml; time 21 day
[18] = Metabolic stability in human liver microsomes in absence of NADPH by LC-MS/MS assay; type: ADME, Microsome
[19] = Metabolic stability in mouse liver microsomes in absence of NADPH by LC-MS/MS assay; type: ADME, Microsome
[20] = test system: PTP1B versus M. tuberculosis ptpB; test: Selectivity index, ratio of IC50 for human PTP1B to Mycobacterium tuberculosis H37Rv ptpB; type: toxicity; conditions: read-out: Ratio IC50
[21] = target: T1, Triple specificity protein phosphatase PtpB; test: Inhibition of Mycobacterium tuberculosis H37Rv ptpB using pNPP as substrate preincubated for 10 mins followed by substrate addition and measured for 5 mins by spectrophotometer analysis

## CO[C@H]1/C=C/O[C@@]2(C)Oc3c(C)c(O)c4c(O)c(c(/C=N/N5CCN(C)CC5)c(O)c4c3C2=O)NC(=O)/C(C)=C\C=C\[C@H](C)[C@H](O)[C@@H](C)[C@@H](O)[C@@H](C)[C@H](OC(C)=O)[C@@H]1C [RIFAMPIN]
Vero
  IC50: > 64 µg/mL
[1]
  IC50: > 64 µg/mL
[2]
  MIC: 0.023 µg/mL (≈ 0.0279 µM)
[3]
  Activity: >85%

## CCCC[C@@H](C(=O)O)N1C(=O)/C(=C/c2ccc(-c3cccc(C(F)(F)F)c3)cc2)SC1=S
[4]
  remaining at 0.5 h: 95.9%
[5]
  Activity: >85%
[6]
  microsomal CLint: < 22.1 µL/min/mg
[7]
  IC50: 0.64 µM
[8]
  Papp at 1.5 h, 3 µM: 16.9 ×10⁻⁶ cm/s
[9]
  IC50: 4.06 µM
Vero
  IC50: 32.2 µg/mL (≈ 67.1 µM)
[1]
  IC50: 50.3 µg/mL (≈ 105 µM)
[10]
  Activity: Dose-Dependent Effect
[11]
  half-life: > 1.55 h
[12]
  microsomal CLint: < 6.1 µL/min/mg
[13]
  inhibition: 104%
[14]
  half-life: > 1.55 h
[15]
  IC50: 4.14 µM
[16]
  remaining at 0.5 h: 101%
[17]
  Activity: >95%
[18]
  Stability: Stable
[19]
  Stability: Stable
[20]
  selectivity ratio: 7
[2]
  MIC: 31.1 µg/mL (≈ 64.9 µM)

## O=C1NC(=S)NC(=O)C1Cc1cc(Br)ccc1OCc1ccc(Cl)cc1
[21]
  IC50: 22.4 µM
[2]
  MIC: > 32 µg/mL
